Results published in patent US9884862B2, “Pyridopyrimidinedione derivatives” (Novartis AG, priority 2014, dated 2018).
pEC50: −log10 of the molar value. Where two headings read alike, the source gives them in different places.

Key:
CFTR-Y122X = CFTR-Y122X assay (dual reporter isogenic Hek293 cell lines, Renilla luminescence readthrough); type: cell-based; details: for Emax / AC50 / Amax: nonsense mutation suppression, 24 h incubation, tested up to 100 μM; for Emax / Amax: 100% = 14 mM paromomycin; for Emax: read-out: Amax
Source text: Activity of compounds of the present invention was examined in recombinant, dual reporter isogenic Hek293 cell lines (“CFTR-Y122X assay”). The engineered reporter constructs contained the 18 bp sequence stretch corresponding to a common Y122X PTC mutation in CFTR class I mutant patients (see Sermet-Gaudelus, BMC Medicine, 2007, 5(5)). Instead of a tyrosine (Y) in position 122 of the CFTR protein a TGA stop codon interrupts the open reading frame (Y122X) of the corresponding mRNA. This TGA stop codon triplet (followed by the pyrimidine base cytosine) is permissive to aminoglycoside mediated translational readthrough which served as positive control for high throughput screening. A corresponding TAA stop codon variant and a wildtype non mutated construct was used for confirmation and counter screening. The CFTR sequence was sandwiched between an eGFP reporter, and a triple myc tag sequence fused to a full length Renilla reporter. All sequences, including an intron containing one positioned pre-eGFP (b-globin intron) were cloned in frame. The corresponding expression constructs were stably expressed in the isogenic HEK-R4 cell host (Invitrogen Incorp.) and selected by blasticidin resistance. The isogenic integration of the construct minimizes gene dose effects and improves assay reproducibility. Stably integrated single cell derived clones were selected and characterized for aminoglycoside mediated readthrough. […] Readthrough of Y122X accumulates an intracellular localized fusion protein approximately 65.5 kDa in size as controlled by western blot analysis and immunofluorescence using an anti-renilla antibody. The eGFP reporter pre-PTC mutation serves as visual control for genetic stability of the screening clones and minimizes protein degradation of small fusion protein amounts. In the assay, compound concentration was 10 μM. In miniaturized 1536 well format 2000 cells were dispensed in 4 μl/well and incubated for 24 h at 37° C., 5% CO2. 40 nl compounds were placed on the cells with control wells containing 1 ul Paramomycin and 14.4 mM final concentration. Compounds were incubated for 24 h. Renilla Glo substrate (2.5 ul) was added and plates were centrifuged and processed for luminescence measurement using various readers. Activity calculation was done using the equation: A1(%)=100*(S−NC)/(AC−NC) where AC, NC and S correspond to active controls (injection of Stimulation buffer=100% stimulation), neutral controls (buffer injection which Iloprost EC10) and screening samples (S). NC corresponds to 0% activity whereas AC is 100% activity (14 mM paromomycin). False positive artifacts were removed in confirmation and validation screening using the same assay format followed by counterscreening using the respective wildtype construct (w/o PTC mutation) cell model. Compounds were tested up to 100 μM compound concentration.

[1] = tested on: alpha-L-Iduronidase W402X in Hurler patient derived fibroblast cells; test: Hurler patient derived fibroblast cell cultures, restored alpha-L-iduronidase activity (W402X readthrough); type: cell-based, human; details: 8 days incubation, highest concentration 20 uM; for Emax / AC50: Homo sapiens, Fibroblast, 192 h; for Emax / Amax: 14 mM paromomycin = 100% control; for Emax: read-out: Amax; for AC50: 8 point dilutions
Source text: Activity of compounds of the present invention was examined in patient derived fibroblast cells. The genotyped cells were derived from the Coriell Institute (# GM00798) and contain an in frame homozygous TGG to TAG change at nucleotide 1293 of exon 9 which results in a W402X mutation. The W402X mutation is one of the most common Hurler syndromes causing loss of function mutation. Between 60-70% of genotyped patients contain either the Q70X and/or the W402X in mutation and are classified as severe MPSI patients. This TAG stop codon triplet is permissive to aminoglycoside mediated translational readthrough which served as activity control for compound testing. Readthrough of W402X restores alpha-L-Iduronidase activity which results in removal of lysosomal accumulated Glycosaminoglycan's. Iduronidase expression could neither be detected by Taqman PCR© nor by enzyme activity or ELISA methods without compound stimulation. Compounds were tested in concentration response mode. Therefore 5000 patient cells/40 ul/well in 384 well plates were used. Compound dilutions were derived from freshly prepared 10 mM compound stock solutions. Highest concentration was 20 uM and subsequently diluted 1: 3.16 (8 point dilutions, n=4). Final DMSO concentration was below 0.5% and tested to be without effect on cell viability, growth and readthrough. Cells were incubated for 8 days with one cell media and compound exchange at day 3. Thereafter cell media was removed and cells were lysed (0.4 M Sodiumformate, 0.1% NaN3, 0.9% NaCl, 0.2% Triton, pH 3.5). Restored alpha-L-iduronidase activity in cell lysates was measured with the fluorescent 4-MU iduronide substrate (5 ul of 0.4 mM 4 Methylumbelliferyl alpha-L-iduronide/well) after 48 h incubation. Paromomycin was used as reference control (14 mM=100% control).

Row | SMILES | Emax [1] [%] | AC50 [1] [µM] | Emax (CFTR-Y122X; Homo sapiens, HEK293, 24 h) [%] | AC50 (CFTR-Y122X; Homo sapiens, HEK293, 24 h) [µM] | also measured
1 | CCSc1nc2c(c(=O)n1-c1ccccc1)C(=O)C1CCCC1N2 (stereo not shown) [2-(ethylthio)-3-phenyl-5a,6,7,8,8a,9-hexahydro-3H-cyclopenta[5,6]pyrido[2,3-d]pyrimidine-4,5-dione] | – | – | – | – | suppression relative to paromomycin reference activity (CFTR-Y122X; at the above dose ranges (up to 100 μM)): less than 5%
2 | CC(C)c1nc2c(c(=O)c3sccc3n2C)c(=O)n1-c1ccccc1 [Example 1.1, 2-isopropyl-9-methyl-3-phenylthieno[2′,3′:5,6]pyrido[2,3-d]pyrimidine-4,5(3H,9H)-dione] | 25 | 12 | – | – | Emax (CFTR-Y122X; Homo sapiens, HEK293): 247%; AC50 (CFTR-Y122X; Homo sapiens, HEK293): 2.2 µM
3 | Cc1cc2c(=O)c3c(=O)n(-c4ccccc4)c(C(C)C)nc3n(C)c2s1 [Example 1.2, 2-isopropyl-7,9-dimethyl-3-phenylthieno[3′,2′:5,6]pyrido[2,3-d]pyrimidine-4,5(3H,9H)-dione] | – | 17 | – | – | Amax (CFTR-Y122X): 249%; AC50 (CFTR-Y122X): 13 µM; Amax [1]: 59%
4 | Cc1cc2c(=O)c3c(=O)n(-c4ccccc4)c(C4CCC4)nc3[nH]c2s1 [Example 2.1, 2-cyclobutyl-7-methyl-3-phenylthieno[3′,2′:5,6]pyrido[2,3-d]pyrimidine-4,5(3H,9H)-dione] | 42 | 12 | 211 | 12 | –
5 | Cc1cc2c(=O)c3c(=O)n(-c4ccccc4)c(C4CCC4)nc3n(CCN)c2s1 [Example 2.2, 9-(2-aminoethyl)-2-cyclobutyl-7-methyl-3-phenylthieno[3′,2′:5,6]pyrido[2,3-d]pyrimidine-4,5(3H,9H)-dione] | 162 | 6.9 | 343 | 4.3 | –
6 | Cc1cc2c(s1)c(=O)c1c(=O)n(-c3ccccc3)c(C(C)C)nc1n2C [Example 2.3, 2-isopropyl-7,9-dimethyl-3-phenylthieno[2′,3′:5,6]pyrido[2,3-d]pyrimidine-4,5(3H,9H)-dione] | 39 | – | 169 | 14 | –
7 | Cc1cc2c(=O)c3c(=O)n(-c4ccccc4)c(C(C)C)nc3n(C)c2s1 [Example 2.4, 2-isopropyl-7,9-dimethyl-3-phenylthieno[3′,2′:5,6]pyrido[2,3-d]pyrimidine-4,5(3H,9H)-dione] | – | – | – | 11 | Amax (CFTR-Y122X): 299%; Amax [1]: 13%
8 | CC(C)c1nc2[nH]c3cscc3c(=O)c2c(=O)n1-c1ccccc1 [Example 2.5, 2-isopropyl-3-phenylthieno[3′,4′:5,6]pyrido[2,3-d]pyrimidine-4,5(3H,9H)-dione] | 16 | 1.1 | 113 | 23 | –
9 | CC(C)c1nc2[nH]c3sccc3c(=O)c2c(=O)n1-c1ccccc1 [Example 2.6, 2-isopropyl-3-phenylthieno[3′,2′:5,6]pyrido[2,3-d]pyrimidine-4,5(3H,9H)-dione] | 6 | – | 97 | 16 | –
10 | CC(C)c1nc2[nH]c3ccsc3c(=O)c2c(=O)n1-c1ccccc1 [Example 2.7, 2-isopropyl-3-phenylthieno[2′,3′:5,6]pyrido[2,3-d]pyrimidine-4,5(3H,9H)-dione] | 51 | 10 | 332 | 6.9 | –
11 | Cc1cc2[nH]c3nc(C(C)C)n(-c4ccccc4)c(=O)c3c(=O)c2s1 [Example 2.8, 2-isopropyl-7-methyl-3-phenylthieno[2′,3′:5,6]pyrido[2,3-d]pyrimidine-4,5(3H,9H)-dione] | 65 | 10 | 225 | 7.9 | –
12 | Cc1cc2c(=O)c3c(=O)n(-c4ccccc4)c(C4CCC4)nc3n(C)c2s1 [Example 2.9, 2-cyclobutyl-7,9-dimethyl-3-phenylthieno[3′,2′:5,6]pyrido[2,3-d]pyrimidine-4,5(3H,9H)-dione] | 96 | 3.7 | 207 | 2.2 | –
13 | Cn1c2nc(C3CCC3)n(-c3ccccc3)c(=O)c2c(=O)c2ccsc21 [Example 2.10, 2-cyclobutyl-9-methyl-3-phenylthieno[3′,2′:5,6]pyrido[2,3-d]pyrimidine-4,5(3H,9H)-dione] | 167 | 5.5 | 393 | 2 | –
14 | Cn1c2ccsc2c(=O)c2c(=O)n(-c3ccccc3)c(C3CCC3)nc21 [Example 2.11, 2-cyclobutyl-9-methyl-3-phenylthieno[2′,3′:5,6]pyrido[2,3-d]pyrimidine-4,5(3H,9H)-dione] | 152 | 4.5 | 157 | 2 | –
15 | Cc1cc2c(s1)c(=O)c1c(=O)n(-c3ccccc3)c(C3CCC3)nc1n2C [Example 2.12, 2-cyclobutyl-7,9-dimethyl-3-phenylthieno[2′,3′:5,6]pyrido[2,3-d]pyrimidine-4,5(3H,9H)-dione] | 138 | 9 | 133 | 3 | –
16 | CCc1cc2c(=O)c3c(=O)n(-c4ccccc4)c(C4CCC4)nc3n(C)c2s1 [Example 2.13, 2-cyclobutyl-7-ethyl-9-methyl-3-phenylthieno[3′,2′:5,6]pyrido[2,3-d]pyrimidine-4,5(3H,9H)-dione] | 66 | 16 | 118 | 6.1 | –
17 | Cc1csc2c1c(=O)c1c(=O)n(-c3ccccc3)c(C3CCC3)nc1n2C [Example 2.14, 2-cyclobutyl-6,9-dimethyl-3-phenylthieno[3′,2′:5,6]pyrido[2,3-d]pyrimidine-4,5(3H,9H)-dione] | 10 | – | 114 | 13 | –
18 | Cc1csc2c(=O)c3c(=O)n(-c4ccccc4)c(C4CCC4)nc3n(C)c12 [Example 2.15, 2-cyclobutyl-8,9-dimethyl-3-phenylthieno[2′,3′:5,6]pyrido[2,3-d]pyrimidine-4,5(3H,9H)-dione] | 115 | 5.7 | 188 | 2.6 | –
19 | Cc1scc2c(=O)c3c(=O)n(-c4ccccc4)c(C4CCC4)nc3n(C)c12 [Example 2.16, 2-cyclobutyl-8,9-dimethyl-3-phenylthieno[3′,4′:5,6]pyrido[2,3-d]pyrimidine-4,5(3H,9H)-dione] | 150 | 12.3 | 199 | 4.6 | –
20 | NC[C@@H]1O[C@H](O[C@H]2[C@@H](O)[C@H](O[C@@H]3[C@@H](O)[C@H](N)C[C@H](N)[C@H]3O[C@H]3O[C@H](CO)[C@@H](O)[C@H](O)[C@H]3N)O[C@@H]2CO)[C@H](N)[C@@H](O)[C@@H]1O [paromomycin, reference compound] | – | – | – | – | pEC50 (CFTR-Y122X; Homo sapiens, HEK293, clone pursued for HTS assay development, read-out: EC50 (readthrough response of selected clone)): 2.82
